{
  "source": "patent US20030228675A1",
  "about": "“ATM related kinase ATX, nucleic acids encoding same and methods of use” (priority 2002, published 2003)",
  "type_in_all_cases": "cell-based, human",
  "key": {"p53": {"tested_on": "p53", "experiment": "Stress-induced p53 Ser-15 phosphorylation and p53 accumulation by immunoblotting", "experimental": "To prepare recombinant HA-tagged ATX and ATM proteins, HEK 293T cells were plated onto 60-mm dishes (9×10^5 cells per dish), and were transfected with 5 μg pcDNA3.1 (empty vector), HA-ATXWT, HA-ATXKI, or HA-ATMWT plasmid DNAS. Transfections were performed with the Fugene 6 transfection reagent (Roche), according to the manufacturer's instructions. For NMD assays (see Example 9, below), U2OS cells were seeded onto 100 mm dishes (1×10^6 cells per dish). After 20 h, cells were transfected with 1.5 μg of pmCMV-Gl test plasmid, either Norm or 39Ter (Ishigaki et al., 2001); 1.5 μg of phCMV-MUP reference plasmid (Ishigaki et al., Cell 106:607-617 (2001)); and 7 μg of empty plasmid (pcDNA 3.1), plasmids encoding HA-ATMWT, HA-ATMKI, HA-ATXWT or HA-ATXKI. For antisense transfection experiments, U2OS cells were seeded onto 60 mm dishes (1×10^5 cells per dish) in complete medium supplemented with penicillin/streptomycin. After 30 h, cells were either mock transfected or transfected with sense (S) or antisense (AS) phosphorothioate oligonucleotides (Genset Oligos, La Jolla, Calif.). The S oligonucleotide spans ATX nucleotides 210-229 (5′-[…]-3′), and the AS oligonucleotide is complementary to this sequence (5′-[…]-3′). The cells were transfected with oligonucleotides at final concentrations of 8 μg/ml, with Fugene 6:DNA ratio of 1.6:1. Forty-eight hours after transfection, dishes were exposed to IR, UV-B, or 5-FU, and then harvested for immunoblotting, cell-cycle distribution, or cell survival assays. To examine ATX protein levels in oligonucleotide-treated cells, whole cell extracts were resolved by SDS-PAGE and immunoblotted with α-ATX Ab-1. When oligonucleotide-transfected cells were used for NMD assays, U2OS cells were seeded in culture dishes as described above. The cells were transfected using the Fugene reagent, with 1.5 μg of pmCMV-Gl test plasmid, 0.7 μg of phCMV-MUP reference plasmid, and 24 μg of S or AS oligonucleotide.\nA major mediator of stress-induced signaling in mammalian cells is the tumor suppressor protein, p53 (Ko and Prives, Genes and Development 10:1054-1072, (1996); Ryan et al., Curr. Opin. Cell Biol. 13:332-337 (2001)). ATX phosphorylates p53 on Ser-15 (FIG. 1C), a site implicated in the regulation of p53 stability and transcriptional activity (Dumaz and Meek, Curr. Opin. Cell Biol. 13:225-231 (1999); Zhang and Xiong, Science 292:1910-1915 (2001)). Therefore, the possibility that these two proteins are functionally linked during cellular stress responses was investigated. U2OS cells were transiently transfected with a HA-ATXWT or HA-ATXKI expression plasmid, together with a GFP-encoding plasmid to allow for FACS-based enrichment of the transfected cells. The GFP+ cells were then examined for IR-induced stabilization of p53, as well as for specific phosphorylation of this protein on Ser-15. […] In contrast, overexpression of ATXWT enhanced both of these responses in cells exposed to IR.\nThe recognition of UV light-induced DNA damage occurs primarily during S phase, when pyrimidine dimers and other bulky lesions interfere with replication fork progression (Friedberg, DNA Repair and Mutagenesis (Washington, D.C., ASM Press) (1995); Lindahl and Wood, Cell 103:1121-1131 (1999)).\nIn order to further define the potential linkage between DNA replicational stress and ATX, the response of AS-treated cells to 5-fluorouracil (5-FU), an S-phase specific cytotoxic agent was examined (Danenberg et al., Seminars in Oncology 26:621-631 (1999); Grem, Investigational New Drugs 18:299-313 (2000)).\nChanges in phosphorylation at Ser-15 are typically accompanied by alterations in the expression of the p53 protein, which complicates the interpretation of results obtained by immunoblotting of whole cell extracts with phospho-Ser-15-specific antibodies. […]"}, "[1]": {"tested_on": "NMD of the Ter-containing β-globin mRNA", "experiment": "NMD assay, β-globin Ter mRNA by RT-PCR", "settings": "U2OS, reduced endogenous ATX expression", "experimental": "To prepare recombinant HA-tagged ATX and ATM proteins, HEK 293T cells were plated onto 60-mm dishes (9×10^5 cells per dish), and were transfected with 5 μg pcDNA3.1 (empty vector), HA-ATXWT, HA-ATXKI, or HA-ATMWT plasmid DNAS. Transfections were performed with the Fugene 6 transfection reagent (Roche), according to the manufacturer's instructions. For NMD assays (see Example 9, below), U2OS cells were seeded onto 100 mm dishes (1×10^6 cells per dish). After 20 h, cells were transfected with 1.5 μg of pmCMV-Gl test plasmid, either Norm or 39Ter (Ishigaki et al., 2001); 1.5 μg of phCMV-MUP reference plasmid (Ishigaki et al., Cell 106:607-617 (2001)); and 7 μg of empty plasmid (pcDNA 3.1), plasmids encoding HA-ATMWT, HA-ATMKI, HA-ATXWT or HA-ATXKI. For antisense transfection experiments, U2OS cells were seeded onto 60 mm dishes (1×10^5 cells per dish) in complete medium supplemented with penicillin/streptomycin. […]\nTotal or nuclear RNA was isolated using Trizol (Invitrogen) or the NE-PER kit (Pierce), respectively. The extent of NMD was determined by using RT-PCR to quantitate the levels of Globin and MUP mRNA as described previously (Ishigaki et al., Cell 83: 1-4 (2001)), except that 21 cycles of PCR were used when analyzing the effects of ATX-specific S and AS oligonucleotides."}, "U2OS cells": {"tested_on": "U2OS cells", "experiment": "Clonogenic survival assay of oligonucleotide-transfected cells", "experimental": "To address concerns related to potential non-specific effects of ATXKI expression on cellular functions, an antisense oligonucleotide-based approach to reduce the level of ATX expression in U2OS cells was developed. The cells were mock transfected, or transfected with sense (S) or antisense (AS) oligonucleotides, and then treated for 24 h with various genotoxic agents. The cells were then trypsinized and replated, and clonogenic survival was analyzed after 10 days in culture. The results obtained with AS-treated cells were strikingly similar to those obtained with the ATXKI-expressing cells (FIGS. 2A-C). While transfection of U2OS cells with the S oligonucleotide reduced the basal level of colony outgrowth by 25%, treatment with the AS oligonucleotide decreased basal clonogenic activity by 75% (FIG. 2C, right panel). […] The reduction in ATX protein caused by AS treatment ranged from 50-90% in over 10 independent trials.\nTo prepare recombinant HA-tagged ATX and ATM proteins, HEK 293T cells were plated onto 60-mm dishes (9×10^5 cells per dish), and were transfected with 5 μg pcDNA3.1 (empty vector), HA-ATXWT, HA-ATXKI, or HA-ATMWT plasmid DNAS. Transfections were performed with the Fugene 6 transfection reagent (Roche), according to the manufacturer's instructions. For NMD assays (see Example 9, below), U2OS cells were seeded onto 100 mm dishes (1×10^6 cells per dish). […]\nU2OS cells were seeded into 60 mm dishes (1×10^5 cells per dish) in complete medium. […] To quantitate the outgrowth of drug-resistant cells, the Coomassie Blue-bound protein was solubilized at 37° C. with 0.1 M NaOH, and the soluble material was analyzed by absorbance spectroscopy at a wavelength of 590 nm. […] Drug-resistant colonies were stained with Coomassie Blue after 10 days in culture, and the samples were analyzed with Image Pro Plus software to quantitate cell density. […]"}},
  "data": [
    {"substance": "5′-AGCAAGCTCCCTCCTGTCTC-3′ (all phosphorothioate, sugars by position and methylation of C not given here) [AS oligonucleotide, ATX antisense phosphorothioate oligonucleotide complementary to ATX nucleotides 210-229]", "values": [
      {"measurement": "stoichiometric increase in Ser-15 phosphorylation (phospho-Ser-15 to total p53) triggered by UV", "setting": "p53; U2OS pretreated with proteasome inhibitor LLnV, UV", "value": "effectively blocked"},
      {"measurement": "level of p53 induction by 5-FU", "setting": "p53; U2OS, 5-FU exposure, versus S-treated cells", "value": "identical to that observed in their S-treated counterparts"},
      {"measurement": "phosphorylation and stabilization of p53 induced by IR exposure", "setting": "p53; U2OS, IR", "value": "reduced both the phosphorylation and stabilization of p53"},
      {"measurement": "Ser-15 phosphorylation and p53 protein accumulation in UV-damaged cells", "setting": "p53; U2OS, UV", "value": "severely impaired both Ser-15 phosphorylation and p53 protein accumulation"},
      {"measurement": "NMD activity", "setting": "[1]", "value": "ATX expression is required for maximal NMD activity"},
      {"measurement": "sensitivity to suppressive effects of IR and UV on clonogenic survival", "setting": "U2OS cells; IR and UV treatments", "value": "significantly more sensitive"},
      {"measurement": "decrease of basal level of colony outgrowth (basal clonogenic activity)", "setting": "U2OS cells; non-irradiated, 10 days in culture", "value": 75, "unit": "%"}
    ]}
  ]
}
